Where “and” joins values, the source holds several entries; their conditions need not be identical. Equal entries are not always repeated.
Tests used:
[1] = target: RSV MTase-CTD (Human respiratory syncytial virus A, UniProt P28887); experiment: MTase activity inhibition, filter-binding assay (3H-methyl transfer from SAM to GpppG-RSV9 RNA); assay type: biochemical; settings: for IC50: 25 nM RSV MTase-CTD, 0.7 μM GpppG-RSV9 RNA, 2 μM SAM, pH 7.5, 30°C, Hill slope curve-fitting
[2] = target: RSV L-P complex (Human respiratory syncytial virus A, UniProt P28887); experiment: MTase activity inhibition, filter-binding assay with the RSV L-P complex; assay type: biochemical, human RSV (strain A2); settings: 60 nM RSV L-P complex, 1.8 μM GpppG-RSV9 RNA, 0.17 μM SAM and 0.8 μM 3H-SAM, pH 7.5, 30°C
[3] = system: RSV; experiment: Antiviral activity in cellular assay, replication of RSV in HeLa cells; assay type: cell-based, Respiratory syncytial virus; settings: before toxicity
[4] = system: VSV; settings: BHK cells, plaque assay; read-out: half maximal effective concentration (EC50), VSV replication; cited from earlier work

Sequence of RSV MTase-CTD (P28887 1755-2165): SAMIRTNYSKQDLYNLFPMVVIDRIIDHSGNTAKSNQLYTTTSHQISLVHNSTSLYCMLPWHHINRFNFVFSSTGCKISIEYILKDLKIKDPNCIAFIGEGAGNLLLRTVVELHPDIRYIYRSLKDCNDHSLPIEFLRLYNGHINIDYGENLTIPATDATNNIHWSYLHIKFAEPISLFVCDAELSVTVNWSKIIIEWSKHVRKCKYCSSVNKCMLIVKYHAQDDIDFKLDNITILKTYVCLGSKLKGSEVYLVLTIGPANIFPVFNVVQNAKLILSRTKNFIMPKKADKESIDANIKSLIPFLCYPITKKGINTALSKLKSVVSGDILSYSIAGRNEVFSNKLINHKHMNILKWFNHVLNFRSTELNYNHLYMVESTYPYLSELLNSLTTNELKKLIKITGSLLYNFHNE
Sequence of RSV L-P complex (P03421 whole entry): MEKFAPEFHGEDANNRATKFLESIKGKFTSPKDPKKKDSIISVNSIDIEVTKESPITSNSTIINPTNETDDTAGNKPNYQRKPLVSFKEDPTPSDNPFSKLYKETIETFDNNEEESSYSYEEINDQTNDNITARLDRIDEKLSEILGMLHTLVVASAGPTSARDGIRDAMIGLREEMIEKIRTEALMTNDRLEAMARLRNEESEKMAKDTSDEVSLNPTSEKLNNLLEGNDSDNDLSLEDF
Sequence of RSV L-P complex (P28887 whole entry): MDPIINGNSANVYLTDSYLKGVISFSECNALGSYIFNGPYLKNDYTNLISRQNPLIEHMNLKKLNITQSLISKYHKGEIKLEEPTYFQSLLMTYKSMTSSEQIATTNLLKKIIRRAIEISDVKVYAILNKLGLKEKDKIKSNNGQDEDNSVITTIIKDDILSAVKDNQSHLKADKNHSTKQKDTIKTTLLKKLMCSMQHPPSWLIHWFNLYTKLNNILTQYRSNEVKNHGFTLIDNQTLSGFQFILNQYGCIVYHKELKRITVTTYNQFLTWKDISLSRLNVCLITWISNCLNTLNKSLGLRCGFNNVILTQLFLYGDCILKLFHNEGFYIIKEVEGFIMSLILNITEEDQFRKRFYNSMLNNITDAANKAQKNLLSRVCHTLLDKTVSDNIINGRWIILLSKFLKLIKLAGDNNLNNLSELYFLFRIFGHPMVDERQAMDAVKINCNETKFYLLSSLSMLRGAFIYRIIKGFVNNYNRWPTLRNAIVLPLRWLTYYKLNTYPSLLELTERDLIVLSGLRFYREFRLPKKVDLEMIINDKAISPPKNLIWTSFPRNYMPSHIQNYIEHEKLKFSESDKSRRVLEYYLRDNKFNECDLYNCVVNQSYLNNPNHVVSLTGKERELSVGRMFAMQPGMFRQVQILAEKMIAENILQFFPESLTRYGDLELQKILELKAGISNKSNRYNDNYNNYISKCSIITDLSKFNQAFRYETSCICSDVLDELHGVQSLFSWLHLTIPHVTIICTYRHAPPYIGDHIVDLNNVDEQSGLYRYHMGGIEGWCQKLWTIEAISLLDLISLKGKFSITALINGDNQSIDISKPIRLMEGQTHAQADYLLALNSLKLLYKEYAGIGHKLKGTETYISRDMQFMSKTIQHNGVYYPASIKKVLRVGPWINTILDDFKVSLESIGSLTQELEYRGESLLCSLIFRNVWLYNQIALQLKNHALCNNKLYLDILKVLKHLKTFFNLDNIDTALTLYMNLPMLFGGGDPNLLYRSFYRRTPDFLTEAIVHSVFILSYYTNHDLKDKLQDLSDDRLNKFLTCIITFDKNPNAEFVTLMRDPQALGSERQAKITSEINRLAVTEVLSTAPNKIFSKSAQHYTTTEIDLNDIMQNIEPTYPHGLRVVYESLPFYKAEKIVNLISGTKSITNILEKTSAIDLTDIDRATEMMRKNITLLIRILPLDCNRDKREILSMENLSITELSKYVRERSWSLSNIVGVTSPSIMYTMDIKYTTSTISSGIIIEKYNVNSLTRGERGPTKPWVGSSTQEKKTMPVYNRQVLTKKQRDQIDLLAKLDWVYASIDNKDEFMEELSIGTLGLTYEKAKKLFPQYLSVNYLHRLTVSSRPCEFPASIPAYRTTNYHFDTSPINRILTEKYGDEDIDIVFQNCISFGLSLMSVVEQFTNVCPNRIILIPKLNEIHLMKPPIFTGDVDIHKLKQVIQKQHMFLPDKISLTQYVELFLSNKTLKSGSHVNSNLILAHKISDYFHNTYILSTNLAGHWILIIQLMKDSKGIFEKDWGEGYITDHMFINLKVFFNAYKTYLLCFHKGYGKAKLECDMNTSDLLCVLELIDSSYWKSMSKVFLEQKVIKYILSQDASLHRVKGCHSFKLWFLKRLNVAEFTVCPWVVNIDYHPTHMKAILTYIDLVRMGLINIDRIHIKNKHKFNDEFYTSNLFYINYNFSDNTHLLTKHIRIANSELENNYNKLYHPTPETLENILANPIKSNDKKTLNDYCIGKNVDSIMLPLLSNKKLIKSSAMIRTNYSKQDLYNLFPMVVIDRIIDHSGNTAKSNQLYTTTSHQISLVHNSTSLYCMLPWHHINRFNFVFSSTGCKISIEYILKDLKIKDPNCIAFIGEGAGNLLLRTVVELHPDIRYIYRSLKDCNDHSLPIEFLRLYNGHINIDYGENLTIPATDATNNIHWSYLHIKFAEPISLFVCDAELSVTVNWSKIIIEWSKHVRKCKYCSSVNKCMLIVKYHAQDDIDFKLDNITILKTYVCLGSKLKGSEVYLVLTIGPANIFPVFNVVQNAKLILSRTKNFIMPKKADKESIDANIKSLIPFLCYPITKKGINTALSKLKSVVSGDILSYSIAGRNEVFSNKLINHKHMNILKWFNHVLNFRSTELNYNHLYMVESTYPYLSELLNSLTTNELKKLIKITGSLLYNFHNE

Structure (SMILES) | inhibitory activity on RSV MTase-CTD compared with GpppG [1] | IC50 [2] | also measured
Nc1nc2c(ncn2[C@@H]2O[C@H](COP(=O)(O)OP(=O)(O)OP(=O)(O)OC[C@H]3O[C@@H](n4cnc5c(N)ncnc54)[C@H](O)[C@@H]3O)[C@@H](O)[C@H]2O)c(=O)[nH]1 [GpppA] | lower inhibitory activity | – | –
Cn1c[n+]([C@@H]2O[C@H](COP(=O)(O)OP(=O)([O-])O)[C@@H](O)[C@H]2O)c2nc(N)[nH]c(=O)c21 [^mGDP] | lower inhibitory activity | – | –
Nc1ncnc2c1ncn2[C@@H]1O[C@H](CSCC[C@H](N)C(=O)O)[C@@H](O)[C@H]1O [SAH, S-adenosyl homocysteine] | – | 37.8 µM and ~37.8 µM | IC50 ([1]; 3 h): 24.7 µM and ~24.7 µM
Nc1nc2c(ncn2[C@@H]2O[C@H](COP(=O)(O)OP(=O)(O)OP(=O)(O)OC[C@H]3O[C@@H](n4cnc5c(=O)[nH]c(N)nc54)[C@H](O)[C@@H]3O)[C@@H](O)[C@H]2O)c(=O)[nH]1 [GpppG] | – | – | inhibition of the activity of the RSV MTase-CTD ([1]; […], methylation of GpppG-RSV9 RNA by FBA, 50 µM): 50%
C[n+]1cn(C2OC(COP(=O)([O-])OP(=O)(O)OP(=O)(O)OCC3OC(n4cnc5c(N)ncnc54)C(O)C3O)C(O)C2O)c2nc(N)[nH]c(=O)c21 (stereo not shown) [^mGpppA] | lower inhibitory activity | – | –
Nc1ncnc2c1ncn2[C@@H]1O[C@H](C[C@@H](N)CC[C@H](N)C(=O)O)[C@@H](O)[C@H]1O [sinefungin] | – | 9.8 µM and ~9.8 µM | IC50 [1]: 6.4 µM and ~6.4 µM; inhibition of replication of RSV [3]: did not show inhibition activity; EC50 [4]: 220 µM
